Experimental data published in PMC6337631, “Effective Tetradentate Compound Complexes against Leishmania spp. that Act on Critical Enzymatic Pathways of These Parasites” (Molecules, 2018).

What was measured:
[1] = test system: Leishmania infantum promastigote forms; test: Promastigote test (extracellular forms), L. infantum; assay type: cell-based; conditions: Leishmania infantum; 72 h; 100 µM to 1 µM; mean ± SD of four determinations
Method: (§1) Promastigote forms of three different Leishmania spp., L. donovani (MHOM/PE/84/LC26), L. infantum (MCAN/ES/2001/UCM-10) and L. braziliensis (MHOM/BR/1975/M2904), were cultured in vitro in Medium Trypanosomes Liquid (MTL) supplemented with 10% inactivated foetal calf serum (FCS) in an air atmosphere at 28 °C, in Roux flasks (Corning, Manassas, VA, USA) with a surface area of 75 cm^2, according to [33].
(§2) The compounds and the reference drug Glu were dissolved in DMSO (Panreac, Barcelona, Spain) and tested from 100 µM to 1 µM with 0.1% (v/v) DMSO final concentration in plates. Therefore, controls were prepared including 0.1% (v/v) of this component, as previously described.
(§3) Promastigote forms were collected in the exponential growth phase and seeded at 1 × 10^5 parasites/mL in 24-well microplates (Nunc, Naperville, IL, USA), after adding each compound at concentrations from 100 µM to 1 µM and cultured in 500 μL/well volumes at 28 °C. After 72 h incubation, the leishmanicidal activity was assessed using a Neubauer haemocytometric chamber in comparison with the control cultures. […] Each drug concentration was tested in triplicate in four separate determinations.

[2] = test system: Leishmania infantum amastigote forms; test: Amastigote test (intracellular forms in J774.2 macrophages), L. infantum; assay type: cell-based; conditions: Leishmania infantum, 72 h, mean ± SD
Method: as §1, §2
(§4) J774.2 macrophages were grown and seeded at a density of 1 × 10^4 cells/well in 24-well microplates (Nunc) with rounded coverslips on the bottom and cultured for 48 h in humidified 95% air, 5% CO2 atmosphere at 37 °C in Minimal Essential Medium (MEM) with 2 mM glutamine and 20% (v/v) inactivated FCS. Adherent macrophages were infected with metacyclic promastigotes in the stationary growth phase of L. donovani, L. infantum and L. braziliensis at a multiplicity of infection (MOI) ratio of 1:10 and maintained for 24 h. Non-phagocytosed parasites were removed by washing, and after addition of the testing compounds at concentrations from 100 µM to 1 µM, cultured in 500 μL/well volumes. Control cultures were also included. After 72 h incubation, leishmanicidal activity was assessed based on the number of amastigotes in treated and untreated cultures in methanol-fixed and Giemsa-stained preparations by analyzing 500 host cells distributed in randomly chosen microscopic fields. The leishmanicidal effect was calculated as described to determine the leishmanicidal activity in the promastigote forms. Each drug concentration was tested in triplicate in four separate determinations.

[3] = test system: Leishmania braziliensis promastigote forms; test: Promastigote test (extracellular forms), L. braziliensis; assay type: cell-based; conditions: Leishmania braziliensis; 72 h; 100 µM to 1 µM; mean ± SD
Method: as §1, §2, §3

[4] = test system: Leishmania braziliensis amastigote forms; test: Amastigote test (intracellular forms in J774.2 macrophages), L. braziliensis; assay type: cell-based; conditions: Leishmania braziliensis, 72 h, mean ± SD
Method: as §1, §2, §4

[5] = test system: Leishmania donovani promastigote forms; test: Promastigote test (extracellular forms), L. donovani; assay type: cell-based; conditions: Leishmania donovani; 72 h; 100 µM to 1 µM; mean ± SD
Method: as §1, §2, §3

[6] = test system: Leishmania donovani infection of J774.2 macrophages; test: Infectivity assay, L. donovani; assay type: cell-based; conditions: IC25 concentration
Method: After the initial in vitro studies we were interested in finding out if the six most leishmanicidal compounds could also prevent the infection of host cells. For this reason, we conducted an assay in which the J774.2 macrophages were exposed to the metacyclic promastigotes and the compound at IC25 concentration at the same time. The propagation of the parasitic infection was determined by measuring the infection rate and the average number of amastigotes per macrophage cell present during the 10-day treatment period. In addition, the endocytic (short-time of infection) and infection (long-time of infection) indexes were calculated.
Adherent macrophages were grown, seeded and infected with metacyclic promastigotes as mentioned above. The compounds at IC25 concentrations (calculated using linear regression analysis from the Kc values of the concentrations employed) were added immediately after infection and incubation was performed for 12 h at 37 °C in humidified 95% air, 5% CO2 atmosphere. in humidified 95% air, 5% CO2 atmosphere at 37 °C Non-phagocytosed parasites and drugs were removed by washing, and then the infected cultures were grown for 10 days, adding fresh culture medium every 48 h, according to [35]. Amastigotes per macrophage count was determined in methanol-fixed and Giemsa-stained preparations as mentioned above every 48 h. The infection rate (defined as the percentage of infected cells), the average number of amastigotes per macrophage, and the endocytic and infection indexes (calculated by multiplying the infection rate by the average number of amastigotes per macrophage) were determined. Each drug concentration was tested in triplicate in four separate determinations.

[7] = test system: L. donovani promastigotes; test: Metabolite excretion by 1H-NMR, L. donovani; assay type: cell-based, Leishmania donovani; conditions: IC25 concentration, 72 h, vs untreated
Method: Trypanosomatids catabolizes glucose at a high rate, excreting into the medium partly oxidized end products such as acetate, succinate, L-alanine or L-lactate.
Cultures of L. donovani, L. infantum and L. braziliensis promastigotes were seeded in culture flaks at 5 × 10^5 cells/mL, and after the addition of the compounds at IC25 concentrations at 28 °C. Control cultures were also included. After 72 h of incubation, parasites were centrifuged at 400 × g for 10 min, and supernatants were collected in order to determine the excreted metabolites by ^1H-NMR. Chemical shifts were expressed in parts per million (ppm) using sodium 2,2-dimethyl-2-silapentane-5-sulphonate as the reference signal. The One-dimensional ^1H-NMR spectra were acquired with a VARIAN DIRECT DRIVE 400 MHz Bruker spectrometer (Rheinstetten, Germany) with an AutoX probe using D2O as solvent. The chemical shifts used to identify the respective metabolites were consistent with those described previously by some of the authors. The spectral region of 1.0–5.5 ppm was bucketed into a frequency window of 0.1 ppm. The peak (2.6 ppm) corresponding to DMSO was removed before binning, and the regions corresponding to water (4.5–5.5 ppm) and glucose (3.4–3.8 ppm) were excluded during binning to avoid artefacts due to pre-saturation. The aromatic region was excluded because the signal to noise ratio in this region was poorer in comparison to the aliphatic region. The resulting integrals were normalised to the working region (1.0–3.4) ppm of the spectrum to correct for inter-sample differences in dilution. The binning and normalisations were achieved using Mestrenova 9.0 software (Santiago de Compostela, Spain). The matrix obtained in Mestrenova was imported into Microsoft Excel (Redmond, WA, USA) for further data analyses.

[8] = test system: L. donovani promastigotes; test: Ultrastructural alterations by TEM, L. donovani; assay type: cell-based, Leishmania donovani; conditions: 72 h at IC25 concentration
Method: (§5) Parasites were cultured at a density of 5 × 10^5 cells/mL with medium containing the tested compounds at IC25 concentrations. After 72 h at 28 °C, the cultures were processed using a technique previously described and analysed by TEM (LIBRA 120 PLUS, Zeiss, Barcelona, Spain).

[9] = test system: L. infantum promastigotes; test: Ultrastructural alterations by TEM, L. infantum; assay type: cell-based, Leishmania infantum; conditions: 72 h at IC25 concentration
Method: as §5

[10] = last day of the experiment (day 10)

CN(C)c1ccnc(CN2CCC[C@H]2[C@@H]2CCCN2Cc2cc(N(C)C)ccn2)c1 [Compound 7]
IC50 [1]: 12.3 ± 2.2 µM
IC50 [2]: 9 ± 0.4 µM
IC50 [3]: 11.7 ± 0.8 µM
IC50 [4]: 8.5 ± 0.3 µM
IC50 [5]: 8.1 ± 3.9 µM
day at which the decline in the infection rate appeared, L. donovani ([6]; 10-day infectivity assay): 2 days
percentage of decrease in infection rate in comparison to the control, L. donovani [6, 10]: 88%
percentage of decrease in number of amastigotes per macrophage cell in comparison to the control, L. donovani [6, 10]: 74%
Excretion variation ACETATE, L. donovani [7]: > 50%
Excretion variation L-ALANINE, L. donovani [7]: 64%
Excretion variation SUCCINATE, L. donovani [7]: > 50%
ultrastructural alterations of L. donovani promastigotes (TEM) [8]: cytoplasmic emptiness, none or a few ribosomes, swollen and disintegrated mitochondria and abundant lipid and non-lipid vacuoles
ultrastructural alterations of L. infantum promastigotes (TEM) [9]: most destructive compounds
